Patent US20250163048A1 (Tango Therapeutics, Inc., priority 2022, published 2025)
Like-named read-outs stand apart in the source and are kept apart here.

Assays:
MTAP-deleted cell line = assay: viability assay for the MTAP-deleted cell line; format: cell-based
[1] = tested on: HAP1 MTAP-intact cell line; assay: SDMA in-cell western assay, HAP1 MTAP-intact
[2] = tested on: HAP1 MTAP-deleted cell line; assay: SDMA in-cell western assay, HAP1 MTAP-deleted; details: for Hap1 MTAP intact/deleted ratio: IC50 ratio between HAP1 MTAP-intact and HAP1 MTAP-deleted cell line
[3] = Homo sapiens, HAP1, viability assay
[4] = Homo sapiens, HAP1, read-out: Hap1 MTAP intact IC50, SDMA in-cell western assay, HAP1 MTAP-intact cell line
[5] = Homo sapiens, HAP1, read-out: Hap1 MTAP deleted IC50, SDMA in-cell western assay, HAP1 MTAP-deleted cell line
[6] = Homo sapiens, HAP1, read-out: Hap1 MTAP deleted IC90, SDMA in-cell western assay, HAP1 MTAP-deleted cell line
[7] = Homo sapiens, HAP1, read-out: Hap1 MTAP intact IC50, SDMA in-cell western, HAP1 MTAP-intact cell line
[8] = Homo sapiens, HAP1, read-out: Hap1 MTAP deleted IC50, SDMA in-cell western, HAP1 MTAP-deleted cell line
[9] = Homo sapiens, HAP1, read-out: Hap1 MTAP deleted IC90, SDMA in-cell western, HAP1 MTAP-deleted cell line
[10] = viability assay, read-out: Hap1 MTAP deleted viability IC50
[11] = read-out: Hap1 MTAP intact IC50, SDMA in-cell western, HAP1 MTAP-intact cell line
[12] = read-out: Hap1 MTAP deleted IC50, SDMA in-cell western, HAP1 MTAP-deleted cell line
[13] = read-out: Hap1 MTAP deleted IC90, SDMA in-cell western, HAP1 MTAP-deleted cell line

| SMILES | IC50 [1, 4] [nM] | IC50 [2, 5] [nM] | IC90 [2, 6] [nM] | IC50 [1, 7] [nM] | IC50 [2, 8] [nM] | IC90 [2, 9] [nM] | IC50 [1, 11] [nM] | IC50 [2, 12] [nM] | IC90 [2, 13] [nM] | IC50 (MTAP-deleted cell line; [3]) [nM] | Hap1 MTAP intact/deleted ratio ([2]; SDMA in-cell western assay) | Hap1 MTAP intact/deleted ratio ([2]; SDMA in-cell western) | IC50 (MTAP-deleted cell line; [10]) [nM] |
| --- | --- | --- | --- | --- | --- | --- | --- | --- | --- | --- | --- | --- | --- |
| C[C@H]1CC[C@H](c2ccc3c(c2)CCN(C)C3)N(C(=O)C(=O)Nc2cnc(N)c3cn[nH]c23)C1 (racemic) [Compound 265, N-(4-Amino-1H-pyrazolo[4,3-c]pyridin-7-yl)-2-oxo-2-[rac-(2R,5S)-5-methyl-2-(2-methyl-3,4-dihydro-1H-isoquinolin-6-yl)-1-piperidyl]acetamide] | 5 to 50 | < 5 | < 75 |  |  |  |  |  |  | < 100 | C (“C” indicates an IC50 ratio of less than 15 fold) |  |  |
| C[C@@H]1CCC[C@H](c2ccccc2)N1C(=O)C(=O)Nc1cnc(N)c2cn[nH]c12 (racemic) [Compound 270, N-(4-Amino-1H-pyrazolo[4,3-c]pyridin-7-yl)-2-oxo-2-[rac-(2R,6R)-2-methyl-6-phenyl-1-piperidyl]acetamide] | > 50 | < 5 | < 75 |  |  |  |  |  |  | < 100 | A (“A” indicates an IC50 ratio greater than or equal to 30 fold) |  |  |
| C[C@H]1CC[C@H](c2ccc3sc([C@H]4CCN(C)C[C@@H]4C)nc3c2)N(C(=O)C(=O)Nc2ccn3ccnc3c2)C1 (relative stereo) [Compound 48, N-imidazo[1,2-a]pyridin-7-yl-2-oxo-2-[(2R,5S)-5-methyl-2-[2-[rel-(3R,4S)-1,3-dimethyl-4-piperidyl]-1,3-benzothiazol-5-yl]-1-piperidyl]acetamide] |  |  |  | > 50 | < 5 | < 75 |  |  |  | < 100 |  | A (“A” indicates an IC50 ratio greater than or equal to 30 fold) |  |
| C[C@H]1CC[C@H](c2ccc3sc([C@H]4CCN(C)C[C@H]4C)nc3c2)N(C(=O)C(=O)Nc2ccn3ccnc3c2)C1 (relative stereo) [Compound 58, N-imidazo[1,2-a]pyridin-7-yl-2-oxo-2-[(2R,5S)-5-methyl-2-[2-[rel-(3S,4S)-1,3-dimethyl-4-piperidyl]-1,3-benzothiazol-5-yl]-1-piperidyl]acetamide] |  |  |  | > 50 | < 5 | < 75 |  |  |  | < 100 |  | A (“A” indicates an IC50 ratio greater than or equal to 30 fold) |  |
| C[C@H]1CC[C@H](c2ccc3sc([C@@H](C)CN(C)C)nc3c2)N(C(=O)C(=O)Nc2cncc3c(N)nccc23)C1 (relative stereo) [Compound 76, N-(8-amino-2,7-naphthyridin-4-yl)-2-((2R,5S)-2-(2-((S)-1-(dimethylamino)propan-2-yl)benzo[d]thiazol-5-yl)-5-methylpiperidin-1-yl)-2-oxoacetamide] |  |  |  | > 50 | 5 to 50 | < 75 |  |  |  | < 100 |  | A (“A” indicates an IC50 ratio greater than or equal to 30 fold) |  |
| C[C@H]1CC[C@H](c2ccc3sc([C@H]4CCN(C)C[C@H]4C)nc3c2)N(C(=O)C(=O)Nc2cncc3cn[nH]c23)C1 (relative stereo) [Compound 106, 2-oxo-N-(1H-pyrazolo[4,3-c]pyridin-7-yl)-2-[(2R,5S)-5-methyl-2-[2-[rel-(3S,4S)-1,3-dimethyl-4-piperidyl]-1,3-benzothiazol-5-yl]-1-piperidyl]acetamide] |  |  |  |  |  |  | 5 to 50 | < 5 | < 75 |  |  | C (“C” indicates an IC50 ratio of less than 15 fold) | < 100 |
| CO[C@@H]1C[C@@H](c2ccc(F)cc2)N(C(=O)C(=O)Nc2cnc(N)c3cn[nH]c23)C[C@@H]1C (single isomer, unassigned) [Compound 7] |  |  |  | 5 to 50 | < 5 | < 75 |  |  |  | < 100 |  | B (“B” indicates an IC50 ratio greater than or equal to 15 fold but lower than 30 fold) |  |
| C[C@H]1CC[C@H](c2ccc3sc(CCN(C)C)nc3c2)N(C(=O)C(=O)Nc2ccn3ccnc3c2)C1 (single isomer, unassigned) [Compound 16, 2-(2-(2-(2-(dimethylamino)ethyl)benzo[d]thiazol-5-yl)-5-methylpiperidin-1-yl)-N-(imidazo[1,2-a]pyridin-7-yl)-2-oxoacetamide] |  |  |  | > 50 | < 5 | < 75 |  |  |  | < 100 |  | A (“A” indicates an IC50 ratio greater than or equal to 30 fold) |  |
| C[C@H]1CC[C@H](c2ccc3nn(C4CCN(C)C(C)(C)C4)cc3c2)N(C(=O)C(=O)Nc2cncc3cn[nH]c23)C1 (single isomer, unassigned) [Compound 20] |  |  |  |  |  |  | 5 to 50 | < 5 | < 75 |  |  | C (“C” indicates an IC50 ratio of less than 15 fold) | < 100 |

Second part, led by results:

| IC50 [1, 4] [nM] | IC50 [2, 5] [nM] | IC90 [2, 6] [nM] | IC50 [1, 7] [nM] | IC50 [2, 8] [nM] | IC90 [2, 9] [nM] | IC50 [1, 11] [nM] | IC50 [2, 12] [nM] | IC90 [2, 13] [nM] | SMILES | IC50 (MTAP-deleted cell line; [3]) [nM] | Hap1 MTAP intact/deleted ratio ([2]; SDMA in-cell western assay) | Hap1 MTAP intact/deleted ratio ([2]; SDMA in-cell western) | IC50 (MTAP-deleted cell line; [10]) [nM] |
| --- | --- | --- | --- | --- | --- | --- | --- | --- | --- | --- | --- | --- | --- |
| > 50 | 5 to 50 | > 125 |  |  |  |  |  |  | CC[C@@H]1CC[C@@H](C)N(C(=O)C(=O)Nc2cnc(N)c3cn[nH]c23)C1 (racemic) [Compound 269, N-(4-Amino-1H-pyrazolo[4,3-c]pyridin-7-yl)-2-oxo-2-[rac-(2R,5R)-5-ethyl-2-methyl-1-piperidyl]acetamide] | 100 to 1000 | A (“A” indicates an IC50 ratio greater than or equal to 30 fold) |  |  |
| 5 to 50 | < 5 | < 75 |  |  |  |  |  |  | C[C@H]1CC[C@H](c2cccc3c2CCO3)N(C(=O)C(=O)Nc2cnc(N)c3cn[nH]c23)C1 (racemic) [Compound 282, N-(4-Amino-1H-pyrazolo[4,3-c]pyridin-7-yl)-2-oxo-2-[rac-(2R,5S)-2-(2,3-dihydrobenzofuran-4-yl)-5-methyl-1-piperidyl]acetamide] | < 100 | A (“A” indicates an IC50 ratio greater than or equal to 30 fold) |  |  |
|  |  |  | > 50 | < 5 | < 75 |  |  |  | C[C@H]1CC[C@H](c2ccc3sc([C@H]4CCCN(C)C4)nc3c2)N(C(=O)C(=O)Nc2cncc3c(N)nccc23)C1 (relative stereo) [Compound 10, N-(8-amino-2,7-naphthyridin-4-yl)-2-oxo-2-[(2R,5S)-5-methyl-2-[2-[rel-(3S)-1-methyl-3-piperidyl]-1,3-benzothiazol-5-yl]-1-piperidyl]acetamide] | < 100 |  | A (“A” indicates an IC50 ratio greater than or equal to 30 fold) |  |
|  |  |  | > 50 | < 5 | < 75 |  |  |  | C[C@H]1CC[C@H](c2ccc3sc([C@@H]4CCN(C)C[C@@H]4C)nc3c2)N(C(=O)C(=O)Nc2cncc3cn[nH]c23)C1 (relative stereo) [Compound 12, 2-oxo-N-(1H-pyrazolo[4,3-c]pyridin-7-yl)-2-[(2R,5S)-5-methyl-2-[2-[rel-(3R,4R)-1,3-dimethyl-4-piperidyl]-1,3-benzothiazol-5-yl]-1-piperidyl]acetamide] | < 100 |  | B (“B” indicates an IC50 ratio greater than or equal to 15 fold but lower than 30 fold) |  |
|  |  |  | > 50 | 5 to 50 | 75 to 125 |  |  |  | C[C@@H]1CC[C@@H](c2ccc3cn(C)nc3c2)N(C(=O)C(=O)Nc2cncc3cn[nH]c23)C1 (relative stereo) [Compound 13, 2-[rel-(2S,5R)-5-methyl-2-(2-methylindazol-6-yl)-1-piperidyl]-2-oxo-N-(1H-pyrazolo[4,3-c]pyridin-7-yl)acetamide] | 100 to 1000 |  | B (“B” indicates an IC50 ratio greater than or equal to 15 fold but lower than 30 fold) |  |
|  |  |  | 5 to 50 | < 5 | < 75 |  |  |  | C[C@H]1CC[C@H](c2ccc3sc([C@@H]4CCN(C)C[C@H]4C)nc3c2)N(C(=O)C(=O)Nc2cncc3cn[nH]c23)C1 (relative stereo) [Compound 71, 2-oxo-N-(1H-pyrazolo[4,3-c]pyridin-7-yl)-2-[(2R,5S)-5-methyl-2-[2-[rel-(3S,4R)-1,3-dimethyl-4-piperidyl]-1,3-benzothiazol-5-yl]-1-piperidyl]acetamide] | < 100 |  | C (“C” indicates an IC50 ratio of less than 15 fold) |  |
|  |  |  | > 50 | < 5 | < 75 |  |  |  | C[C@H]1CC[C@H](c2ccc3sc([C@H](C)CN(C)C)nc3c2)N(C(=O)C(=O)Nc2cncc3c(N)nccc23)C1 (relative stereo) [Compound 99, N-(8-amino-2,7-naphthyridin-4-yl)-2-((2R,5S)-2-(2-((R)-1-(dimethylamino)propan-2-yl)benzo[d]thiazol-5-yl)-5-methylpiperidin-1-yl)-2-oxoacetamide] | < 100 |  | A (“A” indicates an IC50 ratio greater than or equal to 30 fold) |  |
|  |  |  | 5 to 50 | < 5 | < 75 |  |  |  | C[C@H]1CC[C@H](c2ccc3sc([C@@H]4CCN(C)C4)nc3c2)N(C(=O)C(=O)Nc2cncc3cn[nH]c23)C1 (single isomer, unassigned) [Compound 2] | < 100 |  | C (“C” indicates an IC50 ratio of less than 15 fold) |  |
